# Experimental data as given in patent publication US20180093104A1, “LIGHT IRRADIATION METHOD, LIGHT IRRADIATION DEVICE, LIGHT IRRADIATION SYSTEM, DEVICE SYSTEM FOR PHOTODYNAMIC DIAGNOSIS OR PHOTODYNAMIC THERAPY, SYSTEM FOR SPECIFYING TUMOR SITE AND SYSTEM FOR TREATING TUMOR” (SONY CORPORATION, priority 2015, published 2018).
# System: MCF7 (Human breast adenocarcinoma-derived cell line)
# Assay: In vitro PDT experiment: calcein fluorescence viability observation after 405 nm pulse laser irradiation
# Format: cell-based
# Method: In vitro experiments of PDT were performed by using the following materials. Target cells: MCF7 (Human breast adenocarcinoma-derived cell line) Dish: φ35 mm glass bottom dish (non-coated) Culture medium: D-MEM-10% FBS-1% P/S-1 mM pyruvate sodium Photosensitizer: 10 μg/ml talaporfin Viability assay fluorescence reagent: 10 μg/ml calcein Firstly, dishes A and B in which MCF7 had been cultured in the culture medium described above were prepared. Into the dish A, talaporfin was not added, and the dish A was used as a control. Into the dish B, talaporfin at 10 μg/ml was added. […] After the irradiation, incubation was performed further for 18 hours, the cultured cells in each dish were washed twice with phosphate-buffered saline (PBS), substitution with 1 ml of calcein at 10 μg/ml was performed, and the cultured cells in each dish were observed.
smiles,measurement,setting,value
C=Cc1c(C)c2cc3nc(c(CC(=O)N[C@@H](CC(=O)O)C(=O)O)c4[nH]c(cc5nc(cc1[nH]2)C(C)=C5CC)c(C)c4C(=O)O)[C@@H](CCC(=O)O)[C@@H]3C [talaporfin],"killing of cultured cells (calcein fluorescent image, FIG. 8 vs FIG. 7)","Experiment 1: 10 μg/ml talaporfin, 24 hours incubation, pulse laser 405 nm, 120 fs, 1 mW for 30 minutes, observed 18 hours after irradiation, compared with dish A without talaporfin",significantly killed
same,killing of cultured cells in parts of the dish where irradiation had not been performed,"Experiment 2: 10 μg/ml talaporfin, 24 hours incubation, non-irradiated parts of dish B",not able to be confirmed
same,"killing of cultured cells (calcein fluorescent image, FIG. 10 vs FIG. 9)","Experiment 2: 10 μg/ml talaporfin, 24 hours incubation, pulse laser 405 nm for 10 minutes, compared with dish A without talaporfin",significantly killed
same,"killing of cultured cells (calcein fluorescent image, FIG. 12)","Experiment 3: 10 μg/ml talaporfin, 24 hours incubation, not irradiated with a pulse laser",not killed
same,"killing of cultured cells (calcein fluorescent image, FIG. 14)","Experiment 4: 10 μg/ml talaporfin, 1.5 hours incubation, pulse laser 405 nm for 10 minutes",the cells were alive
